From paper PMC2809102, “Two New Pimelic Diphenylamide HDAC Inhibitors Induce Sustained Frataxin Upregulation in Cells from Friedreich's Ataxia Patients and in a Mouse Model” (PLoS ONE, 2010)

How the values were obtained:
[1] = Levels of compound in mouse brain and plasma after single injection; format: in vivo; conditions: single 150 mg/Kg injection
[2] = test system: frataxin in brain and heart of wild-type mice; design: method as in PMID 16921367; conditions: cited from earlier work
[3] = test system: frataxin mRNA in KIKI splenocytes; experiment: Fxn mRNA by qRT-PCR in unstimulated KIKI mouse splenocytes; format: cell-based; conditions: 10 µM, 48 hours
[4] = test system: frataxin mRNA in PBMC from FRDA patients; experiment: FXN mRNA by quantitative real-time RT-PCR in unstimulated PBMC from FRDA patients; format: cell-based, human; conditions: 10 µM
FXN gene expression = test system: FXN gene expression; design: method as in PMID 16921367, PMID 18463734; conditions: FRDA patient cells; cited from earlier work
[5] = test system: FXN mRNA in healthy volunteers PBMCs; experiment: FXN mRNA by qRT-PCR in PBMCs from healthy volunteers; format: cell-based, human; conditions: 10 µM, 48 h
[6] = test system: histone acetylation H3K14 and H4K5 at fxn gene; experiment: ChIP of H3K14 and H4K5 acetylation upstream of GAA repeat in KIKI mouse brain; format: in vivo; conditions: KIKI mice, 50 or 150 mg/kg s.c.
[7] = test system: frataxin mRNA in brain and heart of KIKI mice; experiment: Fxn mRNA by qRT-PCR in brain and heart of KIKI mice after single subcutaneous injection; format: in vivo, mouse

For `Cc1ccc(C(=O)NCCCCCC(=O)Nc2ccccc2N)cc1` [compound 109], the “time to total elimination from brain and plasma” value [1] was < 4 h.
In the case of `Cc1ccc(NC(=O)CCCCCC(=O)Nc2ccccc2N)cc1` [compound 106, N ^1-(2-aminophenyl)-N ^7-p-tolylheptanediamide, reference compound], the “frataxin upregulation in brain and heart of wild-type mice” value [2] is given as “no frataxin upregulation”, the “frataxin mRNA upregulation in mouse splenocytes” value [3] is given as “significant” and the “increase of frataxin mRNA levels, average” value ([4]; 48-hour incubation, average of patients, DMSO = 1) is given as 3.6 fold.
In the case of `CC(/C=C/C(=O)NO)=C\[C@@H](C)C(=O)c1ccc(N(C)C)cc1` [TSA, trichostatin A], the “effect on FXN gene expression” value (FXN gene expression) is listed as “inactive”.
In the case of `Nc1ccccc1NC(=O)CCCCCCC(=O)Nc1ccccc1` [BML-210], the “effect on FXN gene expression” value (FXN gene expression) is listed as “relieve repression of the FXN gene”.
For `O=C(CCCCCCC(=O)Nc1ccccc1)NO` [SAHA, suberoylanilide hydroxamic acid], the “effect on FXN gene expression” value (FXN gene expression) is listed as “inactive”.
For `Cc1ccc(C(=O)NCCCCCC(=O)Nc2ccc(F)cc2N)cc1` [compound 136], the “frataxin mRNA upregulation in mouse splenocytes” value [3] was “significant”, the “effect on frataxin mRNA” value ([4]; 48 h, compared to 10 µM compound 106) was “limited effect” and the “FXN mRNA in healthy volunteers PBMCs” value [5] was “not overall significantly affected”. For the same molecule, the “FXN mRNA trend in healthy volunteers PBMCs” value ([5]; non-significant) was “trend toward downregulation”, the “histone acetylation H3K14 and H4K5 upstream of GAA repeat, brain” value [6] was “increase in histone acetylation” and the “frataxin mRNA in brain” value ([7]; single s.c. 150 mg/kg, 24 hours after injection) was “increase in frataxin mRNA in the brain to wild-type levels”. For the same molecule, the “Fxn mRNA in heart” value ([7]; single s.c. dose, only at 50 or 150 mg/kg (not 5, 15), p = 0.009 and 0.008) was “significantly increased” and the “Fxn mRNA in brain” value ([7]; single s.c. dose, only at 50 or 150 mg/kg (not 5, 15), p<0.001) was “significantly increased”.
